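Dose response: 5 concentrations. Exposure: 48 h. Format: 96-well plates. Endpoint: linear interpolation; highest concentration if not reached. Definition used: TGI = concentration required for complete inhibition of growth.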
Legend:
Test in all cases: growth of human tumour cells (NCI), 48 h
T-47D breast = tested on: T-47D breast
SF-295 CNS = tested on: SF-295 CNS
EKVX NSCLC = tested on: EKVX NSCLC
UACC-257 melanoma = tested on: UACC-257 melanoma
HT29 colon = tested on: HT29 colon
SNB-19 CNS = tested on: SNB-19 CNS
OVCAR-3 ovarian = tested on: OVCAR-3 ovarian
SK-OV-3 ovarian = tested on: SK-OV-3 ovarian
CAKI-1 renal = tested on: CAKI-1 renal
MOLT-4 leukemia = tested on: MOLT-4 leukemia
UO-31 renal = tested on: UO-31 renal
NCI-H226 lung = tested on: NCI-H226 lung
ACHN renal = tested on: ACHN renal
MDA-MB-231 breast = tested on: MDA-MB-231 breast
A498 renal = tested on: A498 renal
RPMI-8226 leukemia = tested on: RPMI-8226 leukemia
HCT-116 colon = tested on: HCT-116 colon

## CN(C)CCCN1C(=S)N(CCCN(C)C)c2c3ccccc3nc3c([N+](=O)[O-])ccc1c23
T-47D breast
  TGI: 31.6 µM
SF-295 CNS
  TGI: 23.7 µM
EKVX NSCLC
  TGI: 25.1 µM
UACC-257 melanoma
  TGI: 20.3 µM
HT29 colon
  TGI: 12 µM
SNB-19 CNS
  TGI: 26 µM
OVCAR-3 ovarian
  TGI: 24.4 µM
SK-OV-3 ovarian
  TGI: 50.8 µM
CAKI-1 renal
  TGI: 19.7 µM
MOLT-4 leukemia
  TGI: > 100 µM
UO-31 renal
  TGI: 27.9 µM
NCI-H226 lung
  TGI: 24.1 µM
ACHN renal
  TGI: 16.1 µM
MDA-MB-231 breast
  TGI: 24 µM
A498 renal
  TGI: 22.9 µM
RPMI-8226 leukemia
  TGI: 50.6 µM
HCT-116 colon
  TGI: 16 µM

## CC(=O)Nc1c(S(=O)(=O)c2ccccc2)c(C)c(C)n1CCN(C)C
T-47D breast
  TGI: > 100 µM
SF-295 CNS
  TGI: > 100 µM
EKVX NSCLC
  TGI: > 100 µM
UACC-257 melanoma
  TGI: > 100 µM
HT29 colon
  TGI: > 100 µM
SNB-19 CNS
  TGI: > 100 µM
OVCAR-3 ovarian
  TGI: > 100 µM
SK-OV-3 ovarian
  TGI: > 100 µM
CAKI-1 renal
  TGI: > 100 µM
MOLT-4 leukemia
  TGI: > 100 µM
UO-31 renal
  TGI: > 100 µM
NCI-H226 lung
  TGI: > 100 µM
ACHN renal
  TGI: > 100 µM
MDA-MB-231 breast
  TGI: > 100 µM
A498 renal
  TGI: > 100 µM
RPMI-8226 leukemia
  TGI: > 100 µM
HCT-116 colon
  TGI: > 100 µM

## CC(C)OC(=O)c1ccc(CCC2=CC(=O)C=CC2=O)cc1
T-47D breast
  TGI: 4.45 µM
SF-295 CNS
  TGI: 90.9 µM
EKVX NSCLC
  TGI: 23.8 µM
UACC-257 melanoma
  TGI: 25.6 µM
HT29 colon
  TGI: 33.1 µM
SNB-19 CNS
  TGI: 56.8 µM
OVCAR-3 ovarian
  TGI: 17 µM
SK-OV-3 ovarian
  TGI: > 88.6 µM
CAKI-1 renal
  TGI: 4.26 µM
MOLT-4 leukemia
  TGI: 8.05 µM
UO-31 renal
  TGI: 14.2 µM
NCI-H226 lung
  TGI: 33.5 µM
ACHN renal
  TGI: 18.8 µM
MDA-MB-231 breast
  TGI: 23.2 µM
A498 renal
  TGI: 45.3 µM
RPMI-8226 leukemia
  TGI: 24.2 µM
HCT-116 colon
  TGI: 27 µM

## C=C1C(=O)O[C@H]2C/C(C)=C/CC[C@@]3(C)O[C@](C)(CC[C@@H]3I)[C@@H](I)C[C@@H]12
T-47D breast
  TGI: 15 µM
SF-295 CNS
  TGI: 15 µM
EKVX NSCLC
  TGI: 14.3 µM
UACC-257 melanoma
  TGI: 12.7 µM
HT29 colon
  TGI: 14.9 µM
SNB-19 CNS
  TGI: 13.5 µM
OVCAR-3 ovarian
  TGI: 8.63 µM
SK-OV-3 ovarian
  TGI: 14.4 µM
CAKI-1 renal
  TGI: 14 µM
MOLT-4 leukemia
  TGI: 13.6 µM
UO-31 renal
  TGI: 11.8 µM
NCI-H226 lung
  TGI: 2.13 µM
ACHN renal
  TGI: 13.6 µM
MDA-MB-231 breast
  TGI: 14.7 µM
A498 renal
  TGI: 17.5 µM
RPMI-8226 leukemia
  TGI: 5.12 µM
HCT-116 colon
  TGI: 9.51 µM

## Cc1cc(S(=O)(=O)Nc2n[nH]c(Nc3ccc(Cl)cc3)n2)c(S)cc1Cl
T-47D breast
  TGI: > 100 µM
SF-295 CNS
  TGI: > 100 µM
EKVX NSCLC
  TGI: > 100 µM
UACC-257 melanoma
  TGI: > 100 µM
HT29 colon
  TGI: > 100 µM
SNB-19 CNS
  TGI: > 100 µM
OVCAR-3 ovarian
  TGI: > 100 µM
SK-OV-3 ovarian
  TGI: > 100 µM
CAKI-1 renal
  TGI: > 100 µM
MOLT-4 leukemia
  TGI: > 100 µM
UO-31 renal
  TGI: > 100 µM
NCI-H226 lung
  TGI: > 100 µM
ACHN renal
  TGI: > 100 µM
MDA-MB-231 breast
  TGI: > 100 µM
A498 renal
  TGI: > 100 µM
RPMI-8226 leukemia
  TGI: > 100 µM
HCT-116 colon
  TGI: > 100 µM

## CN(C)c1ccc(C=Nc2ccc(-c3nc4ccccc4[nH]3)cc2)cc1
T-47D breast
  TGI: > 100 µM
SF-295 CNS
  TGI: > 100 µM
EKVX NSCLC
  TGI: > 100 µM
UACC-257 melanoma
  TGI: > 100 µM
HT29 colon
  TGI: > 100 µM
SNB-19 CNS
  TGI: > 100 µM
OVCAR-3 ovarian
  TGI: > 100 µM
SK-OV-3 ovarian
  TGI: > 100 µM
CAKI-1 renal
  TGI: > 100 µM
MOLT-4 leukemia
  TGI: > 100 µM
UO-31 renal
  TGI: > 100 µM
NCI-H226 lung
  TGI: > 100 µM
ACHN renal
  TGI: > 100 µM
MDA-MB-231 breast
  TGI: > 100 µM
A498 renal
  TGI: > 100 µM
RPMI-8226 leukemia
  TGI: > 100 µM
HCT-116 colon
  TGI: > 100 µM

Reference: PubChem BioAssay (NCI)
